Source: ChEMBL document CHEMBL5537193, “Multitargeting HDAC Inhibitors Containing a RAS/RAF Protein Interfering Unit” (J Med Chem, 2024)
One block for each molecule: values may come before it. Activity calls are given as the source filed them. The calls are words filed in the database; no cut-off is given here.

Experiments:
[1] = test system: A549; assay: cells; conditions: Homo sapiens, A549, 72 h
Description: Cytotoxicity against human A549 cells assessed as inhibition of cell growth incubated for 72 hrs by MTT assay

[2] = test system: NCI-H1975; assay: cells; conditions: Homo sapiens, NCI-H1975, 72 h
Description: Cytotoxicity against human NCI-H1975 cells assessed as inhibition of cell growth incubated for 72 hrs by MTT assay

[3] = test system: A-431; assay: cells; conditions: Homo sapiens, A-431, 72 h
Description: Cytotoxicity against human A-431 cells assessed as inhibition of cell growth incubated for 72 hrs by MTT assay

[4] = test system: SGC-7901; assay: cells; conditions: Homo sapiens, SGC-7901, 72 h
Description: Cytotoxicity against human SGC-7901 cells assessed as inhibition of cell growth incubated for 72 hrs by MTT assay

[5] = test system: HepG2; assay: cells; conditions: Homo sapiens, HepG2, 72 h
Description: Cytotoxicity against human HepG2 cells assessed as inhibition of cell growth incubated for 72 hrs by MTT assay

[6] = test system: MCF7; assay: cells; conditions: Homo sapiens, MCF7, 72 h
Description: Cytotoxicity against human MCF7 cells assessed as inhibition of cell growth incubated for 72 hrs by MTT assay

[7] = test system: L02; assay: cells; conditions: Homo sapiens, L02, 72 h
Description: Cytotoxicity against human L02 cells assessed as inhibition of cell growth incubated for 72 hrs by MTT assay

[8] = Metabolic stability in human liver microsomes assessed as half-life measured upto 40 mins by LC-MS/MS analysis; type: ADME, Microsome
[9] = Metabolic stability in rat liver microsomes assessed as half-life measured upto 40 mins by LC-MS/MS analysis; type: ADME, Microsome
[10] = Metabolic stability in mouse liver microsomes assessed as half-life measured upto 40 mins by LC-MS/MS analysis; type: ADME, Microsome
[11] = Metabolic stability in human liver microsomes assessed as intrinsic clearance measured upto 40 mins by LC-MS/MS analysis; type: ADME, Microsome; conditions: read-out: CLH
[12] = Metabolic stability in rat liver microsomes assessed as intrinsic clearance measured upto 40 mins by LC-MS/MS analysis; type: ADME, Microsome; conditions: read-out: CLH
[13] = Metabolic stability in mouse liver microsomes assessed as intrinsic clearance measured upto 40 mins by LC-MS/MS analysis; type: ADME, Microsome; conditions: read-out: CLH
[14] = biological target: Histone deacetylase 4 (Homo sapiens, UniProt P56524); assay: Inhibition of HDAC4 (unknown origin)
[15] = biological target: Histone deacetylase 9 (Homo sapiens, UniProt Q9UKV0); assay: Inhibition of HDAC9 (unknown origin)
[16] = biological target: Serine/threonine-protein kinase PLK1 (Homo sapiens, UniProt P53350); assay: Inhibition of PLK1 (unknown origin)
[17] = test system: PANC-1; assay: Cell cycle arrest in human PANC-1 cells assessed as accumulation of cells at G2-M phase at 2 uM incubated for 24 hrs by PI/RNase staining based flow cytometric analysis; type: functional
[18] = test system: HT-29; assay: Cell cycle arrest in human HT-29 cells assessed as accumulation of cells at G2-M phase at 2 uM incubated for 24 hrs by PI/RNase staining based flow cytometric analysis; type: functional
[19] = test system: PANC-1; assay: Induction of apoptosis in human PANC-1 cells assessed as apoptotic cells at 2 uM incubated for 24 hrs by flow cytometric analysis relative to control; type: functional
[20] = test system: HT-29; assay: Induction of apoptosis in human HT-29 cells assessed as apoptotic ratio at 2 uM incubated for 24 hrs by flow cytometric analysis; type: functional
[21] = test system: PANC-1; assay: Induction of apoptosis in human PANC-1 cells incubated for 24 hrs by flow cytometric analysis; type: functional, cell-based; conditions: dose 1-4 µM
[22] = test system: HT-29; assay: Induction of apoptosis in human HT-29 cells incubated for 24 hrs by flow cytometric analysis; type: functional, cell-based; conditions: dose 1-4 µM
[23] = test system: PANC-1; assay: Induction of apoptosis in human PANC-1 cells assessed as increase in Bax expression at 2 uM incubated for 24 hrs by Western blot analysis; type: functional, cell-based
[24] = test system: PANC-1; assay: Induction of apoptosis in human PANC-1 cells assessed as increase in Cytochrome C expression level at 2 uM incubated for 24 hrs by Western blot analysis; type: functional, cell-based
[25] = test system: PANC-1; assay: Induction of apoptosis in human PANC-1 cells assessed as increase in cleaved caspase-9 expression level at 2 uM incubated for 24 hrs by Western blot analysis; type: functional, cell-based
[26] = test system: PANC-1; assay: Induction of apoptosis in human PANC-1 cells assessed as increase in cleaved caspase-3 expression level at 2 uM incubated for 24 hrs by Western blot analysis; type: functional, cell-based
[27] = test system: PANC-1; assay: Induction of apoptosis in human PANC-1 cells assessed as increase in cleaved PARP expression level at 2 uM incubated for 24 hrs by Western blot analysis; type: functional, cell-based
[28] = Metabolic stability in human liver microsomes assessed as half-life at 1 uM measured upto 40 mins by LC-MS/MS analysis; type: ADME, Microsome
[29] = Metabolic stability in rat liver microsomes assessed as half-life at 1 uM measured upto 40 mins by LC-MS/MS analysis; type: ADME, Microsome
[30] = Metabolic stability in mouse liver microsomes assessed as half-life at 1 uM measured upto 40 mins by LC-MS/MS analysis; type: ADME, Microsome
[31] = Metabolic stability in human liver microsomes assessed as intrinsic clearance at 1 uM measured upto 40 mins by LC-MS/MS analysis; type: ADME, Microsome; conditions: read-out: CLH
[32] = Metabolic stability in rat liver microsomes assessed as intrinsic clearance at 1 uM measured upto 40 mins by LC-MS/MS analysis; type: ADME, Microsome; conditions: read-out: CLH
[33] = Metabolic stability in mouse liver microsomes assessed as intrinsic clearance at 1 uM measured upto 40 mins by LC-MS/MS analysis; type: ADME, Microsome; conditions: read-out: CLH
[34] = test system: PANC-1; assay: Effect on RAS protein expression in human PANC-1 cells at 2 uM incubated for 24 hrs by Western blot analysis; type: functional, cell-based
[35] = test system: PANC-1; assay: Effect on MEK protein expression in human PANC-1 cells at 2 uM incubated for 24 hrs by Western blot analysis; type: functional, cell-based
[36] = test system: PANC-1; assay: Effect on ERK1/2 protein expression in human PANC-1 cells at 2 uM incubated for 24 hrs by Western blot analysis; type: functional, cell-based
[37] = test system: HT-29; assay: Effect on RAS protein expression in human HT-29 cells at 2 uM incubated for 24 hrs by Western blot analysis; type: functional, cell-based
[38] = test system: HT-29; assay: Effect on MEK protein expression in human HT-29 cells at 2 uM incubated for 24 hrs by Western blot analysis; type: functional, cell-based
[39] = test system: HT-29; assay: Effect on ERK1/2 protein expression in human HT-29 cells at 2 uM incubated for 24 hrs by Western blot analysis; type: functional, cell-based
[40] = test system: PANC-1; assay: Inhibition of MAPK signaling pathway in human PANC-1 cells assessed as inhibition of C-RAF phosphorylation at Ser338 residue at 2 uM incubated for 24 hrs by Western blot analysis; type: cell-based
[41] = test system: PANC-1; assay: Inhibition of MAPK signaling pathway in human PANC-1 cells assessed as inhibition of MEK phosphorylation at 2 uM incubated for 24 hrs by Western blot analysis; type: cell-based
[42] = test system: PANC-1; assay: Inhibition of MAPK signaling pathway in human PANC-1 cells assessed as inhibition of ERK1/2 phosphorylation at 2 uM incubated for 24 hrs by Western blot analysis; type: cell-based
[43] = test system: HT-29; assay: Inhibition of MAPK signaling pathway in human HT-29 cells assessed as inhibition of C-RAF phosphorylation at Ser338 residue at 2 uM incubated for 24 hrs by Western blot analysis; type: cell-based
[44] = test system: HT-29; assay: Inhibition of MAPK signaling pathway in human HT-29 cells assessed as inhibition of MEK phosphorylation at 2 uM incubated for 24 hrs by Western blot analysis; type: cell-based
[45] = test system: HT-29; assay: Inhibition of MAPK signaling pathway in human HT-29 cells assessed as inhibition of ERK1/2 phosphorylation at 2 uM incubated for 24 hrs by Western blot analysis; type: cell-based
[46] = test system: PANC-1; assay: Effect on Histone H3 expression in human PANC-1 cells at 2 uM incubated for 24 hrs by Western blot analysis; type: functional, cell-based
[47] = test system: PANC-1; assay: Effect on alpha-tubulin expression in human PANC-1 cells at 2 uM incubated for 24 hrs by Western blot analysis; type: functional, cell-based
[48] = test system: HT-29; assay: Effect on Histone H3 expression in human HT-29 cells at 2 uM incubated for 24 hrs by Western blot analysis; type: functional, cell-based
[49] = test system: HT-29; assay: Effect on alpha-tubulin expression in human HT-29 cells at 2 uM incubated for 24 hrs by Western blot analysis; type: functional, cell-based
[50] = test system: PANC-1; assay: cells; conditions: Homo sapiens, PANC-1, 72 h
Description: Cytotoxicity against human PANC-1 cells assessed as inhibition of cell growth incubated for 72 hrs by MTT assay

[51] = test system: HT-29; assay: cells; conditions: Homo sapiens, HT-29, 72 h
Description: Cytotoxicity against human HT-29 cells assessed as inhibition of cell growth incubated for 72 hrs by MTT assay

[52] = test system: K562; assay: cells; conditions: Homo sapiens, K562, 72 h
Description: Cytotoxicity against human K562 cells assessed as inhibition of cell growth incubated for 72 hrs by MTT assay

[53] = test system: MV4-11; assay: cells; conditions: Homo sapiens, MV4-11, 72 h
Description: Cytotoxicity against human MV4-11 cells assessed as inhibition of cell growth incubated for 72 hrs by MTT assay

Sequence of Serine/threonine-protein kinase PLK1 (P53350 whole entry): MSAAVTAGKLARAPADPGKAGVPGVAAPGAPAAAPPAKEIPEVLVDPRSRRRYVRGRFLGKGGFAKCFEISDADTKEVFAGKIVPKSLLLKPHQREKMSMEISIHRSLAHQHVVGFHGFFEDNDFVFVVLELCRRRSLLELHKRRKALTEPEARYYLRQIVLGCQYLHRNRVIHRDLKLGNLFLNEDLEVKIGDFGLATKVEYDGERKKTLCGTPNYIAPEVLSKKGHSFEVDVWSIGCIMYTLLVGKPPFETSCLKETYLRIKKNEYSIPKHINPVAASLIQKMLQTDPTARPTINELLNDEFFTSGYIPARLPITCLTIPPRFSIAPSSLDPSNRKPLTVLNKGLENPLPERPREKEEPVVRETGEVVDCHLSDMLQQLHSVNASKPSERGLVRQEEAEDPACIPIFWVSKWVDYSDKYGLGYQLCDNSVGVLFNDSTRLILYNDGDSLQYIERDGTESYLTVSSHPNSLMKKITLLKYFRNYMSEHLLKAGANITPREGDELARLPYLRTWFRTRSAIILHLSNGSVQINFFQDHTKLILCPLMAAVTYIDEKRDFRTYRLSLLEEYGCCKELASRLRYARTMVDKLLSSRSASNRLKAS
Sequence of Histone deacetylase 4 (P56524 whole entry): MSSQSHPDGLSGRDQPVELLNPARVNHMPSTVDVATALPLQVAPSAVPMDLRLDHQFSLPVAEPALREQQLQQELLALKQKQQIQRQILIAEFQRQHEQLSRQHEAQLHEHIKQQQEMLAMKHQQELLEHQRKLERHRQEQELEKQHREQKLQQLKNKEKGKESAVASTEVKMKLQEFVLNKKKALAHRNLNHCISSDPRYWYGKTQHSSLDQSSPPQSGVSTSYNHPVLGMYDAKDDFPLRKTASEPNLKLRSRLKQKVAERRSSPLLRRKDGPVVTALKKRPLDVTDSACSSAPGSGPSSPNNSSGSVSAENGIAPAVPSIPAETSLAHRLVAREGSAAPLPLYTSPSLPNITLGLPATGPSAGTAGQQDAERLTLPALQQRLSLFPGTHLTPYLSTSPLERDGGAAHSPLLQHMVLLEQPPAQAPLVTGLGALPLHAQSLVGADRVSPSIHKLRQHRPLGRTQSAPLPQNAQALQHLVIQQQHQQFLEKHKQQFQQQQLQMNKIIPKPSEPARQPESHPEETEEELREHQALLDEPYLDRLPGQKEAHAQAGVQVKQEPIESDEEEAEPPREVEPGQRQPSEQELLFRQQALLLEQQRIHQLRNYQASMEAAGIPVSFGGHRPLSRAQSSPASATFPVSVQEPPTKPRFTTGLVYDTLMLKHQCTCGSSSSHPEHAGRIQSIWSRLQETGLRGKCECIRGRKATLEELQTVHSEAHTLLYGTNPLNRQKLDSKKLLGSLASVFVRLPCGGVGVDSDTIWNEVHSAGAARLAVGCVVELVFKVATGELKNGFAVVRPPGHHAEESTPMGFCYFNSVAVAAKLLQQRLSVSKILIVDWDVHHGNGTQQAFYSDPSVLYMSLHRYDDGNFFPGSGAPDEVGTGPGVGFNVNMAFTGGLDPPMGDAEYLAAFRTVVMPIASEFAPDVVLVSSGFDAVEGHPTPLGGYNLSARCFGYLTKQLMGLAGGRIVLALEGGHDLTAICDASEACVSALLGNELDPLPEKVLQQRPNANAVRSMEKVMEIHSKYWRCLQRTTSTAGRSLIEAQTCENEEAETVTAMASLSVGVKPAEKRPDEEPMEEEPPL
Sequence of Histone deacetylase 9 (Q9UKV0 whole entry): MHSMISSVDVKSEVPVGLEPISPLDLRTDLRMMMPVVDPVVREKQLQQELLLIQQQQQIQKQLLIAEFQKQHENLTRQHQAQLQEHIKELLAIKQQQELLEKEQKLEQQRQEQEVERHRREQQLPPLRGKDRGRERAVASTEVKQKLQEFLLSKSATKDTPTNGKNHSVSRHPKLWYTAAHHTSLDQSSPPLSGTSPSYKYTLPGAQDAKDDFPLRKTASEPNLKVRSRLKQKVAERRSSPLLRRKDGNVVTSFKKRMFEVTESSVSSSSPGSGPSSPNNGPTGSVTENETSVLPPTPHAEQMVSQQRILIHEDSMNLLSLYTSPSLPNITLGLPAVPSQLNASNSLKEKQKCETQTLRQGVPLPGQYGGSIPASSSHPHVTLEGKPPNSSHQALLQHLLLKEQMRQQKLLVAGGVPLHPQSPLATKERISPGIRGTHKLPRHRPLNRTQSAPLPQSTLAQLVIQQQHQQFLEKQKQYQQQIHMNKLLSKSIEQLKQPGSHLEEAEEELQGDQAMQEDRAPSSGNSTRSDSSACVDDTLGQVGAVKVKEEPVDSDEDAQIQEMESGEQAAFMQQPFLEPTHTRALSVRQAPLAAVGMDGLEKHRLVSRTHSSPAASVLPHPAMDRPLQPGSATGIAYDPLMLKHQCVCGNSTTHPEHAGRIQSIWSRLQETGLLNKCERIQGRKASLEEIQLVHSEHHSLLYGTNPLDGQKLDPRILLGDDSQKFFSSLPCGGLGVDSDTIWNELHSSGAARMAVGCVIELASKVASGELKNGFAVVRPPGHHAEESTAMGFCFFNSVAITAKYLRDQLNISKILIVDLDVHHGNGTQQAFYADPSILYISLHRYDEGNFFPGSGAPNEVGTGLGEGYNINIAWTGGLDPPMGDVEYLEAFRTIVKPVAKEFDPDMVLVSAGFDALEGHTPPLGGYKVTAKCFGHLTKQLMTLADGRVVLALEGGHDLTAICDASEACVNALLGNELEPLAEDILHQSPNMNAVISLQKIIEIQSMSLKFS

Structure (SMILES): COc1cc(OC)c(/C=C/S(=O)(=O)Cc2ccc(OC)c(NCCCCCC(=O)Nc3ccccc3N)c2)c(OC)c1
IC50 [1]: 12.8 µM
IC50 [2]: 4.75 µM
IC50 [3]: 4.47 µM
IC50 [4]: 8.89 µM
IC50 [5]: 7.54 µM
IC50 [6]: 10.5 µM
IC50 [7]: > 40 µM

Structure (SMILES): COc1cc(OC)c(/C=C/S(=O)(=O)Cc2ccc(OC)c(NC(=O)CCCCC(=O)Nc3ccccc3N)c2)c(OC)c1
IC50 [1]: 16.7 µM
IC50 [2]: 18.8 µM
IC50 [3]: 20.6 µM
IC50 [4]: 17.2 µM
IC50 [5]: 27.4 µM
IC50 [6]: 11.7 µM
IC50 [7]: > 40 µM

Structure (SMILES): O=C(c1ccc(F)cc1)C1CCN(CCn2c(=O)[nH]c3ccccc3c2=O)CC1 [KETANSERIN]
half-life [8]: 36.6 min
half-life [9]: 17.6 min
half-life [10]: 20.6 min
CLint scaled [11]: 47.5 mL/min/kg
CLint scaled [12]: 141 mL/min/kg
CLint scaled [13]: 265 mL/min/kg

The remaining molecules from weak to strong by IC50 [1], led by results:

IC50 [1]: 11.3 µM
IC50 [2]: 5.11 µM
IC50 [3]: 8.69 µM
IC50 [4]: 13.2 µM
IC50 [5]: 7.3 µM
IC50 [6]: 12.6 µM
Structure (SMILES): COc1cc(OC)c(/C=C/S(=O)(=O)Cc2ccc(OC)c(NCCC(=O)Nc3ccccc3N)c2)c(OC)c1
IC50 [7]: > 40 µM

IC50 [1]: 8.56 µM
IC50 [2]: 9.48 µM
IC50 [3]: 18.8 µM
IC50 [4]: 12.3 µM
IC50 [5]: 29.1 µM
IC50 [6]: 9.68 µM
Structure (SMILES): COc1cc(OC)c(/C=C/S(=O)(=O)Cc2ccc(OC)c(NC(=O)CCCCC(=O)NO)c2)c(OC)c1
IC50 [7]: > 40 µM

IC50 [1]: 7.41 µM
IC50 [2]: 2.58 µM
IC50 [3]: 1.26 µM
IC50 [4]: 6.6 µM
IC50 [5]: 12.3 µM
IC50 [6]: 13.2 µM
Structure (SMILES): COc1cc(OC)c(/C=C/S(=O)(=O)Cc2ccc(OC)c(NC(=O)CCC(=O)Nc3ccccc3N)c2)c(OC)c1
IC50 [7]: > 40 µM

IC50 [14]: 0.0841 µM
IC50 [15]: 0.0913 µM
IC50 [16]: 0.0205 µM
inhibition [16]: Dose-Dependent Effect
half-life at 1 µM [28]: 48 min
half-life at 1 µM [29]: 35.4 min
half-life at 1 µM [30]: 14.4 min
CLint scaled at 1 µM [31]: 36.2 mL/min/kg
CLint scaled at 1 µM [32]: 70.2 mL/min/kg
CLint scaled at 1 µM [33]: 379 mL/min/kg
IC50 [1]: 0.21 µM
IC50 [2]: 0.08 µM
IC50 [3]: 0.33 µM
IC50 [4]: 0.26 µM
IC50 [5]: 1.68 µM
IC50 [6]: 0.24 µM
IC50 [50]: 0.11 µM
IC50 [51]: 0.12 µM
IC50 [52]: 0.02 µM
IC50 [53]: 0.15 µM
Structure (SMILES): COc1cc(OC)c(/C=C/S(=O)(=O)Cc2ccc(OC)c(NC(=O)CCC(=O)NO)c2)c(OC)c1
Activity [17]: Active
Activity [18]: Active
Activity [19]: 55.1%
Activity [20]: 46.2%
Activity [21]: Dose-Dependent Effect
Activity [22]: Dose-Dependent Effect
Activity [23]: Active
Activity [24]: Active
Activity [25]: Active
Activity [26]: Active
Activity [27]: Active
Activity [34]: inactive
Activity [35]: inactive
Activity [36]: inactive
Activity [37]: inactive
Activity [38]: inactive
Activity [39]: inactive
inhibition [40]: Active
inhibition [41]: Active
inhibition [42]: Active
inhibition [43]: Active
inhibition [44]: Active
inhibition [45]: Active
Activity [46]: inactive
Activity [47]: inactive
Activity [48]: inactive
Activity [49]: inactive
IC50 [7]: > 40 µM
